Data reported in patent publication US20260049140A1 (Janux Therapeutics, Inc., priority 2023, published 2026).
Read-outs that look alike come from different tables or passages of the source.

Target: wild-type and mutant CD3 binding domains harbored within TROP2 TCE constructs
Assay: ELISA binding of peptide masks to wild-type and mutated TROP2 TCEs
Conditions: captured biotinylated peptide or CD3-biotin
[1] = read-out: TCE-3 (3075) (R100A) EC50, binding of TCE-3, anti-CD3 R100A
[2] = read-out: TCE-7 (3079) (F104A) EC50, binding of TCE-7, anti-CD3 F104A
[3] = read-out: TCE-13 (3085) (S110A) EC50, binding of TCE-13, anti-CD3 S110A
[4] = read-out: TCE-14 (3086) (Y111A) EC50, binding of TCE-14, anti-CD3 Y111A
[5] = read-out: TCE-15 (3087) (W112A) EC50, binding of TCE-15, anti-CD3 W112A
[6] = read-out: TCE-19 (3091) (W233A) EC50, binding of TCE-19, anti-CD3 W233A
[7] = read-out: TCE-24 (3096) (W238A) EC50, binding of TCE-24, anti-CD3 W238A
[8] = read-out: TCE-26 (3098) (F240A) EC50, binding of TCE-26, anti-CD3 F240A
[9] = read-out: TCE-6 (3078) (N103A) EC50, binding of TCE-6, anti-CD3 N103A
[10] = read-out: TCE-4 (3076) (H101A) EC50, binding of TCE-4, anti-CD3 H101A

Procedure: Binding was measured in a standard ELISA format. […] Bound TCEs were detected using a standard horse radish peroxidase conjugate secondary antibody. The ELISA signal was plotted versus the log-scale concentration of TCE. The concentrations of TCE required to observe half maximal binding signal (EC50s) were calculated using Graphpad Prism software.

| SMILES | EC50 [1] [nM] | EC50 [2] [nM] | EC50 [3] [nM] | EC50 [4] [nM] | EC50 [5] [nM] | EC50 [6] [nM] | EC50 [7] [nM] | EC50 [8] [nM] | EC50 [9] [nM] | EC50 (read-out: TCE-28 (3100) EC50, binding of TCE-28) [nM] | EC50 (read-out: TCE-1 (2340) (wt) EC50, binding of TCE-1, wild-type anti-CD3) [nM] | EC50 [10] [nM] | EC50 (read-out: TCE-27 (3099) EC50, binding of TCE-27) [nM] |
| --- | --- | --- | --- | --- | --- | --- | --- | --- | --- | --- | --- | --- | --- |
| CC(C)C[C@@H]1NC(=O)[C@@H](NC(=O)[C@H](CCC(N)=O)NC(=O)[C@H](CO)NC(=O)CN)CSSC[C@@H](C(=O)N2CCC[C@H]2C(=O)N[C@@H](Cc2ccc(O)cc2)C(=O)O)NC(=O)[C@H](C(C)C)NC(=O)[C@H](CCC(=O)O)NC(=O)[C@H](Cc2c[nH]c3ccccc23)NC(=O)[C@H](CCC(=O)O)NC(=O)[C@@H]2CCCN2C(=O)CNC1=O [Peptide-2] | 0.58 | 0.63 | 3.65 | 49.1 | 26.4 | 6.28 | 6.34 | 8.02 |  |  |  |  |  |
| CSCC[C@H](NC(=O)[C@@H]1CSSC[C@H](NC(=O)[C@H](Cc2ccc(O)cc2)NC(=O)[C@@H](N)C(C)C)C(=O)NCC(=O)N2CCC[C@H]2C(=O)N[C@@H](CCC(=O)O)C(=O)N[C@@H](Cc2ccccc2)C(=O)N[C@@H](CC(=O)O)C(=O)N[C@@H](CCC(=O)O)C(=O)N[C@@H](CO)C(=O)N[C@@H](C(C)C)C(=O)NCC(=O)N1)C(=O)O [Peptide-3] | 1.76 |  | 0.66 | 77.7 | 10.5 | 6.46 | 5.96 | 5.78 | 0.2 | 0.41 |  |  |  |
| CC(C)C[C@@H]1NC(=O)[C@H](CC(=O)O)NC(=O)[C@H](C(C)C)NC(=O)[C@H](CC(C)C)NC(=O)[C@@H](NC(=O)[C@H](CCC(=O)O)NC(=O)[C@@H](N)CO)CSSC[C@@H](C(=O)N[C@@H](Cc2ccc(O)cc2)C(=O)N[C@@H](Cc2c[nH]c3ccccc23)C(=O)O)NC(=O)[C@@H]2CCCN2C(=O)[C@H](CC(=O)O)NC(=O)[C@H](CO)NC(=O)[C@H](CCC(N)=O)NC1=O [Peptide-5] | 8.73 | 1.93 | 0.95 | 572 | 48.2 | 0.35 | 0.29 | 0.76 | 1.69 |  | 0.3 | 6.94 | 0.31 |
| CSCC[C@H](NC(=O)[C@@H]1CSSC[C@H](NC(=O)[C@H](Cc2ccc(O)cc2)NC(=O)[C@H](C)N)C(=O)NCC(=O)N2CCC[C@H]2C(=O)N[C@@H](CCC(=O)O)C(=O)N[C@@H](Cc2ccccc2)C(=O)N[C@@H](CC(=O)O)C(=O)N[C@@H](CCC(=O)O)C(=O)N[C@@H](CO)C(=O)N[C@@H](C(C)C)C(=O)NCC(=O)N1)C(=O)O [Peptide-8] | 1.85 |  | 0.76 | 76.9 | 11.2 | 6.43 | 5.66 | 5.78 |  |  |  | 1.36 |  |
| CC(C)C[C@@H]1NC(=O)[C@@H](NC(=O)[C@H](CCC(N)=O)NC(=O)[C@H](CO)NC(=O)[C@H](C)N)CSSC[C@@H](C(=O)N2CCC[C@H]2C(=O)N[C@@H](Cc2ccc(O)cc2)C(=O)O)NC(=O)[C@H](C(C)C)NC(=O)[C@H](CCC(=O)O)NC(=O)[C@H](Cc2c[nH]c3ccccc23)NC(=O)[C@H](CCC(=O)O)NC(=O)[C@@H]2CCCN2C(=O)CNC1=O [Peptide-10] | 0.68 | 0.66 | 3.46 | 64.2 | 23.4 | 5.47 | 5.33 | 5.9 | 0.36 |  |  | 0.83 |  |
| CC(C)C[C@@H]1NC(=O)[C@@H](NC(=O)[C@H](C)NC(=O)[C@H](CO)NC(=O)CN)CSSC[C@@H](C(=O)N2CCC[C@H]2C(=O)N[C@@H](Cc2ccc(O)cc2)C(=O)O)NC(=O)[C@H](C(C)C)NC(=O)[C@H](CCC(=O)O)NC(=O)[C@H](Cc2c[nH]c3ccccc23)NC(=O)[C@H](CCC(=O)O)NC(=O)[C@@H]2CCCN2C(=O)CNC1=O [Peptide-11] | 0.76 | 0.88 | 3.82 | 95.6 | 38.2 | 6.26 | 7.08 | 9.2 |  |  |  | 1.05 |  |
